Here are results for one molecule from paper PMC5522427, “Structural and Functional Analysis of Latex Clearing Protein (Lcp) Provides Insight into the Enzymatic Cleavage of Rubber” (Scientific Reports, 2017).

The target of this assay is T1, LcpK30 (Streptomyces sp. K30, UniProt Q3L8N0).
T1 construct: gene lcp; monomer; residues 31-403 modelled; haem b
As to the kind of experiment: crystal structure of complex ([…] Å); EPR. The assay is classed as binding. To be noted: open state; imidazole coordinates haem iron as distal axial ligand, replacing Lys167; 0.2 M malate/imidazole pH 7.5 (crystal); 1 mM imidazole (EPR); ferric as isolated.

T1 sequence (Q3L8N0 31-407): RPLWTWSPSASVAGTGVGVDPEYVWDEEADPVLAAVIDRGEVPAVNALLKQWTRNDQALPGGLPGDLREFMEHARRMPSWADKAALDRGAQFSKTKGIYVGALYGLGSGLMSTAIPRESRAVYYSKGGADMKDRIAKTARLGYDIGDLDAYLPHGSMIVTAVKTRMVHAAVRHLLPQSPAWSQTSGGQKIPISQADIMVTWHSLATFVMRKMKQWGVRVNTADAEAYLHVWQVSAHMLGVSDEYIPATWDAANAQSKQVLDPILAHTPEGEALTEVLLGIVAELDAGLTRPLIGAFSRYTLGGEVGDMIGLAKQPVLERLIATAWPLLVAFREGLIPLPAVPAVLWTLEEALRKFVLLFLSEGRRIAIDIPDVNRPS

On to `c1c[nH]cn1` [imidazole], for which the “crystal structure of complex (1.48 Å); EPR” value is “the distal axial position at the haem iron was now occupied by an imidazole molecule”.
